A short description of series [1]: Solubility in the ACAT incubation medium with ethanol. The conditions noted are these: 1% alcohol, 1.0×10^-4 M. It counts as physicochemical. As for the experimental part: The plate was developed in a hexane:diethyl ether:acetic acid solution (90:10:1) and the cholesterol oleate area was visualized with iodine vapor. The cholesterol oleate spot (Rf=0.70) was scraped from the plate and counted in Packard Scinto Liquid. Samples were run in triplicate, and percent inhibition was calculated utilizing controls with sample solvent only. Compounds were dissolved in ethanol, and the final concentration in the incubation medium was 1.0% in the first experiment and 2.5% in the second.

Series [2] has as its system acyl-coenzyme A:cholesterol acyl transferase (ACAT). The experiment in a line: Acyl-coenzyme A:cholesterol acyl transferase (ACAT) assay in vitro, liver microsomal protein, cholesterol oleate formation. It counts as biochemical. The conditions noted are these: for ACAT inhibition: 1.0×10^-4 M; for Cholesterol Oleate CPM + S.D. / Cholesterol Oleate Inhibition Percent: 1.0 × 10^-4 M, Ethanol.
Protocol: Test Compound (final concentration=1.0×10^-4 M) and 120 mcg of liver microsomal protein were preincubated for 5 minutes at 37° C. in 0.1 M phosphate buffer, pH 7.4, containing 6.0×10^-5 M bovine serum albumin and 0.002 M dithiothreitol (final volume=0.189 ml). Oleoyl-1-^14 C-coenzyme A, dissolved in buffer, was added in a volume of 0.011 ml so that the final concentration was 6.0×10^-5 M at a specific activity of 10.8 mCi/mmol (0.11 u Ci/tube). After incubation at 37° C. for 10 minutes, the reaction was stopped with the addition of 4.0 ml of chloroform:methanol at a ratio of 2:1 (C-M). The mixture was shaken after the addition of 0.84 ml of water, and the organic layer was evaporated to dryness. The aqueous phase was extracted again with 4.0 ml of C-M and the organic layer added to the dried residue of the first extractant. After evaporation, the residue was taken up in 0.040 ml of toluene:chloroform (4:1) and 0.020 ml were spotted on a Silica Gel-G TLC plate, 250 u thickness.

Series [3] has as its system gerbils. As to the kind of experiment: Plasma lipoprotein effects in gerbils. It counts as in vivo, gerbil. Particulars: for HDL-C, After Test / LDL-C plus VLDL-C, After Test / Total Cholesterol, After Test / HDL-C, Before Test / LDL-C plus VLDL-C, Before Test / Total Cholesterol, Before Test / HDL-C, Percent Change / LDL-C plus VLDL-C, Percent Change / Total Cholesterol, Percent Change: gerbil plasma; for HDL-C, Before Test / LDL-C plus VLDL-C, Before Test / Total Cholesterol, Before Test: baseline before dosing; for HDL-C, Percent Change / LDL-C plus VLDL-C, Percent Change / Total Cholesterol, Percent Change: p 0.05.
Protocol: Test compounds were suspended in 0.1% methylcellulose in isotonic saline at a concentration such that the desired dose was given in a volume of 4.0 ml/kg.
On the day before initiation of the experiment and on the day before the last dose, food was removed from the gerbils in the early evening, and at 9 a.m. the next day the animals were bled by heart puncture (0.5 ml) after light ether anesthesia; the animals were dosed approximately 2 hours after bleeding on Day 0 and 2 hours before bleeding on the last dosing day. The blood sample was mixed with a solution of EDTA, 50 mg/ml at pH 7.4, so that the final concentration was 1.5 mg/ml. After swirling, the contents were centrifuged at 1500×g for 10 minutes at 5° C. The plasma was removed from the packed cells and a portion was analyzed for cholesterol utilizing the ABA-100 and A-GENT cholesterol reagent. To 0.100 ml of another portion of plasma was added 0.010 ml of Mg^+2 -phosphotungstate reagent (prepared daily by adding one part of MgCl2, 1.5 M, and 4 parts of sodium phosphotungstate, 4%, adjusted to pH 7.4 with 1.0 N NaOH. The mixture was vortexed and allowed to remain at room temperature for 5 minutes. The sample was centrifuged at 100,000×g for 5 minutes and an aliquot of supernatant analyzed for HDL cholesterol (HDL-C). The difference between total plasma cholesterol and HDL-C (after correction for dilution) was utilized as an estimate of low density plus very low density lipoprotein cholesterol (LDL-C plus VLDL-C). Animals were treated for 5 days in the first experiment and for 4 days in the second.
Controls and test compounds were evaluated in groups of 12 gerbils. The significance of the changes in the plasma parameters was evaluated by a paired t-test; tests of hypothesis were performed at the 0.05 significance level.

Series [4] concerns acyl-coenzyme A:cholesterol acyl transferase (ACAT). Particulars: 1.0×10^-4 M; cited from earlier work.
[5] abbreviates: 1% alcohol (first value of the pair).
Setting [6] is: 2.5% alcohol (second value of the pair).
Setting [7] is: 100 mg/kg, four days, no significant difference.
Where [8] appears, read: 100 mg/kg, five days, ± standard deviation.
Where [9] appears, read: 100 mg/kg, five days, significant difference.
The mark [10] stands for this setting: 123 mg/kg, four days, significant difference.

The text below walks through data of patent US4375478A, “Aminobenzoic acid derivatives” (Abbott Laboratories, priority 1982, dated 1983).

As to `CCCCCCCCCCCCCCCCNc1ccc(C(=O)[O-])cc1.[Na+]`, the “solubility in incubation medium” value in series [1] was “not completely soluble”. Moreover, the “ACAT inhibition” value in series [2] (setting [5]) is given as 26%. For the same compound, the “ACAT inhibition” value in series [2] (setting [6]) worked out at 45%. For the same compound, in series [2] (1%), the “Cholesterol Oleate CPM + S.D.” value turned out to be 1917 ± 33 CPM and the “Cholesterol Oleate Inhibition Percent” value amounted to 26%. For the same compound, in series [2] (2.5%), the “Cholesterol Oleate CPM + S.D.” value was 735 ± 187 CPM and the “Cholesterol Oleate Inhibition Percent” value is 45%. For the same compound, in series [3] (100 mg/kg, four days), the “HDL-C, After Test” value came to 45.1 ± 3.8 mg/dL; the “LDL-C plus VLDL-C, After Test” value came to 44.9 ± 10.6 mg/dL; the “Total Cholesterol, After Test” value was 90.0 ± 11.7 mg/dL; the “HDL-C, Before Test” value was 47.1 ± 13.4 mg/dL. Besides, in series [3] (100 mg/kg, four days), the “LDL-C plus VLDL-C, Before Test” value amounted to 45.9 ± 15.3 mg/dL and the “Total Cholesterol, Before Test” value came out at 93.0 ± 13.3 mg/dL. In addition, in series [3] (setting [7]), the “HDL-C, Percent Change” value is recorded as -4%; the “LDL-C plus VLDL-C, Percent Change” value is given as -2%; the “Total Cholesterol, Percent Change” value is on record as -3%.

In the case of `CCCCCCCCCCCCCCCCNc1c(Cl)cc(C(=O)O)cc1Cl` [Compound B, Sodium (3,5-dichloro-4-hexadecylamino)benzoate], in series [3] (setting [8]), the “HDL-C, Before Test” value stood at 51.7 ± 11.1 mg/dL; the “LDL-C plus VLDL-C, Before Test” value turned out to be 44.8 ± 7.1 mg/dL; the “Total Cholesterol, Before Test” value amounted to 96.6 ± 12.9 mg/dL; the “HDL-C, After Test” value is 42.0 ± 7.0 mg/dL. In series [3] (setting [8]), the “LDL-C plus VLDL-C, After Test” value is 35.8 ± 6.0 mg/dL and the “Total Cholesterol, After Test” value is 77.7 ± 12.3 mg/dL. In series [3] (setting [9]), the “HDL-C, Percent Change” value is recorded as -19%; the “LDL-C plus VLDL-C, Percent Change” value is recorded as -20%; the “Total Cholesterol, Percent Change” value was -20%. For the same compound, in series [3] (123 mg/kg, four days), the “HDL-C, After Test” value came out at 48.8 ± 9.7 mg/dL; the “LDL-C plus VLDL-C, After Test” value came out at 32.1 ± 8.8 mg/dL; the “Total Cholesterol, After Test” value turned out to be 81.0 ± 10.2 mg/dL; the “HDL-C, Before Test” value was found to be 53.7 ± 9.9 mg/dL. In addition, in series [3] (123 mg/kg, four days), the “LDL-C plus VLDL-C, Before Test” value is 42.9 ± 16.8 mg/dL and the “Total Cholesterol, Before Test” value came to 96.6 ± 20.3 mg/dL. In series [3] (setting [10]), the “HDL-C, Percent Change” value was -9%; the “LDL-C plus VLDL-C, Percent Change” value was -25%; the “Total Cholesterol, Percent Change” value is on record as -10%. In addition, in series [3] (gerbils, groups of 12, four days, 123 mg/kg), the “animal deaths in the group” value is “One animal died”.

Regarding `CC(=O)[C@H]1CC[C@H]2[C@@H]3CCC4=CC(=O)CC[C@]4(C)[C@H]3CC[C@]12C` [Progesterone], in series [4], the “ACAT inhibition, literature value of the reference standard” value is 60%. Besides, the “ACAT inhibition” value in series [2] (setting [5]) is 84%; in series [2] (setting [6]) it was 74%; in series [2] (at both alcohol concentrations (1% and 2.5%)), 65-66%. In addition, the “Cholesterol Oleate CPM + S.D.” value in series [2] (1%) came out at 891 ± 555 CPM; in series [2] (2.5%), 453 ± 61 CPM. Moreover, the “Cholesterol Oleate Inhibition Percent” value came to 65% in series [2] (1%) and 66% in series [2] (2.5%).
